Reference: patent US20260042770A1, “NOVEL SULFONES AND THEIR USE AS NEUROPROTECTIVE AND/OR NEURORESTORATIVE AGENTS” (GENECODE, priority 2022, published 2026)

biological target: T1, GFRα1-RET (Homo sapiens, UniProt P56159); test: Elk1 luciferase reporter-gene assay in cells expressing GFRα1-RET; format: cell-based; settings: agonist/activator activity of Elk1 signaling; MG87 murine fibroblast stably transfected with PathDetect Elk-1, GFRα1 and RET; 6 concentrations, duplicate, two independent runs
T1 construct: expressed in transfected cells; host or cells: MG87 murine fibroblasts stably transfected with PathDetect Elk-1, GFRα1 and RET
T1 sequence (P56159 25-429 limits assumed): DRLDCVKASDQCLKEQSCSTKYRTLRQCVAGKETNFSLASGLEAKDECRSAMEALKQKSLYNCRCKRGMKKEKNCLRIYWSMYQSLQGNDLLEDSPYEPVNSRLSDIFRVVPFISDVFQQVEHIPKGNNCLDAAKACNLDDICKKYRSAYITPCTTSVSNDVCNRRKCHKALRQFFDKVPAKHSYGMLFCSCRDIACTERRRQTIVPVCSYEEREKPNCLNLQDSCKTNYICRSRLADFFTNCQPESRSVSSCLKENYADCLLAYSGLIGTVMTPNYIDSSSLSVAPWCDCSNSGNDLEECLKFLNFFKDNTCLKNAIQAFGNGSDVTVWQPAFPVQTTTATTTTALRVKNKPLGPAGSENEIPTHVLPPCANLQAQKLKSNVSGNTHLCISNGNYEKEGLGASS
Method: For EC50 determination, a dose-response test was performed using 6 concentrations of each tested compound. Dose-response curves were fitted using the sigmoidal dose-response (variable slope) analysis in GraphPad Prism program (Graph Pad Inc) and EC50 of agonist/activator activity was calculated. Dose-response experiments were all performed in duplicate, two times independently.

SMILES | EC50 [µM]
COc1ccc(S(=O)(=O)Cc2ccccc2)cc1N1[C@@H]2CC[C@H]1CN(C(=O)c1ccc(F)cc1Cl)C2 [Cpd 014, [(1S,5R)-8-(5-benzylsulfonyl-2-methoxy-phenyl)-3,8-diazabicyclo[3.2.1]octan-3-yl]-(2-chloro-4-fluoro-phenyl)methanone] | 10 to 50
COc1ccc(S(=O)(=O)C2COC2)cc1N1CCN(C(=O)c2ccc(F)cc2Cl)CC1 [Cpd 011, (2-chloro-4-fluoro-phenyl)-[4-[2-methoxy-5-(oxetan-3-ylsulfonyl)phenyl]piperazin-1-yl]methanone] | 10 to 50
COc1ccc(S(=O)(=O)C2CCCCC2)cc1N1CCN(C(=O)c2ccc(F)cc2C(F)(F)F)CC1 [Cpd 003, [4-(5-cyclohexylsulfonyl-2-methoxy-phenyl)piperazin-1-yl]-[4-fluoro-2-(trifluoromethyl)phenyl]methanone] | 10 to 50
COc1ccc(S(=O)(=O)CC(C)(C)C)cc1N1[C@@H]2CC[C@H]1CN(C(=O)c1ccc(F)cc1Cl)C2 [Cpd 015, (2-chloro-4-fluoro-phenyl)-[(1S,5R)-8-[5-(2,2-dimethylpropylsulfonyl)-2-methoxy-phenyl]-3,8-diazabicyclo[3.2.1]octan-3-yl]methanone] | 1 to 10
CCCC(C)S(=O)(=O)c1ccc(OC)c(N2CCN(C(=O)c3ccc(F)cc3Cl)CC2C)c1 (racemic) [Cpd 016] | 1 to 10
CCC(C)S(=O)(=O)c1ccc(OC)c(N2C3CCC2CN(C(=O)c2ccc(F)cc2Cl)C3)c1 (racemic) [Cpd 022, (2-chloro-4-fluoro-phenyl)-[(1S,5R)-8-[2-methoxy-5-[(1SR)-1-methylpropyl]sulfonyl-phenyl]-3,8-diazabicyclo[3.2.1]octan-3-yl]methanone] | 1 to 10
COc1ccc(S(=O)(=O)C2CCC2)cc1N1[C@@H]2CC[C@H]1CN(C(=O)c1ccc(F)cc1Cl)C2 [Cpd 010, (2-chloro-4-fluoro-phenyl)-[(1S,5R)-8-(5-cyclobutylsulfonyl-2-methoxy-phenyl)-3,8-diazabicyclo[3.2.1]octan-3-yl]methanone] | 1 to 10
COc1ccc(S(=O)(=O)C2CCN(CCc3ccc(F)cc3)CC2)cc1N1[C@@H]2CC[C@H]1CN(C(=O)c1ccc(F)cc1Cl)C2 [Cpd 029, (2-chloro-4-fluoro-phenyl)-[(1S,5R)-8-[5-[[1-[2-(4-fluorophenyl)ethyl]-4-piperidyl]sulfonyl]-2-methoxy-phenyl]-3,8-diazabicyclo[3.2.1]octan-3-yl]methanone] | 1 to 10
CCC(CCCc1ccccc1)S(=O)(=O)c1ccc(OC)c(N2C3CCC2CN(C(=O)c2ccc(F)cc2Cl)C3)c1 (racemic) [Cpd 026, (2-chloro-4-fluoro-phenyl)-[(1S,5R)-8-[5-[(1SR)-1-ethyl-4-phenyl-butyl]sulfonyl-2-methoxy-phenyl]-3,8-diazabicyclo[3.2.1]octan-3-yl]methanone] | 1 to 10
CCC(CC)S(=O)(=O)c1ccc(OC)c(N2CCN(C(=O)c3ccc(F)cc3Cl)CC2C)c1 (racemic) [Cpd 007, (2-chloro-4-fluoro-phenyl)-[rac-(3S)-4-[5-(1-ethylpropylsulfonyl)-2-methoxy-phenyl]-3-methyl-piperazin-1-yl]methanone] | 1 to 10
COc1ccc(S(=O)(=O)CC2CCC2)cc1N1CCN(C(=O)c2ccc(F)cc2Cl)CC1 [Cpd 012, (2-chloro-4-fluoro-phenyl)-[4-[5-(cyclobutylmethylsulfonyl)-2-methoxy-phenyl]piperazin-1-yl]methanone] | 10 to 50
COc1ccc(S(=O)(=O)C2CCCC2)cc1N1CCN(C(=O)c2ccc(F)cc2C(F)(F)F)CC1 [Cpd 002, [4-(5-cyclopentylsulfonyl-2-methoxy-phenyl)piperazin-1-yl]-[4-fluoro-2-(trifluoromethyl)phenyl]methanone] | 10 to 50
CCCCS(=O)(=O)c1ccc(OC)c(N2[C@@H]3CC[C@H]2CN(C(=O)c2ccc(F)cc2Cl)C3)c1 [Cpd 020, [(1S,5R)-8-(5-butylsulfonyl-2-methoxy-phenyl)-3,8-diazabicyclo[3.2.1]octan-3-yl]-(2-chloro-4-fluoro-phenyl)methanone] | 1 to 10
COc1ccc(S(=O)(=O)CCC2CCCC2)cc1N1[C@@H]2CC[C@H]1CN(C(=O)c1ccc(F)cc1Cl)C2 [Cpd 019, (2-chloro-4-fluoro-phenyl)-[(1S,5R)-8-[5-(2-cyclopentylethylsulfonyl)-2-methoxy-phenyl]-3,8-diazabicyclo[3.2.1]octan-3-yl]methanone] | 1 to 10
COc1ccc(S(=O)(=O)C(C)CCc2ccccc2)cc1N1C2CCC1CN(C(=O)c1ccc(F)cc1Cl)C2 (racemic) [Cpd 023, (2-chloro-4-fluoro-phenyl)-[(1S,5R)-8-[2-methoxy-5-[(1SR)-1-methyl-3-phenyl-propyl]sulfonyl-phenyl]-3,8-diazabicyclo[3.2.1]octan-3-yl]methanone] | 1 to 10
COc1ccc(S(=O)(=O)CC(C)C)cc1N1CCN(C(=O)c2ccc(F)cc2C(F)(F)F)CC1 [Cpd 018, [4-fluoro-2-(trifluoromethyl)phenyl]-[4-(5-isobutylsulfonyl-2-methoxy-phenyl)piperazin-1-yl]methanone] | 10 to 50
CC(C)(C)CS(=O)(=O)c1cc(Cl)c(O)c(N2[C@@H]3CC[C@H]2CN(C(=O)c2ccc(F)cc2Cl)C3)c1 [Cpd 033, [(1S,5R)-8-[3-chloro-5-(2,2-dimethylpropylsulfonyl)-2-hydroxy-phenyl]-3,8-diazabicyclo[3.2.1]octan-3-yl]-(2-chloro-4-fluoro-phenyl)methanone] | < 1
CC(C)(C)CS(=O)(=O)c1cc(Cl)c(Cl)c(N2[C@@H]3CC[C@H]2CN(C(=O)c2ccc(F)cc2Cl)C3)c1 [Cpd 035, (2-chloro-4-fluoro-phenyl)-[(1S,5R)-8-[2,3-dichloro-5-(2,2-dimethylpropylsulfonyl)phenyl]-3,8-diazabicyclo[3.2.1]octan-3-yl]methanone] | < 1
CCC(CC)S(=O)(=O)c1ccc(OC)c(N2CCN(C(=O)c3ccc(F)cc3C(F)(F)F)CC2)c1 [Cpd 001, [4-[5-(1-ethylpropylsulfonyl)-2-methoxy-phenyl]piperazin-1-yl]-[4-fluoro-2-(trifluoromethyl)phenyl]methanone] | 10 to 50
COc1ccc(S(=O)(=O)CC2CC2)cc1N1CCN(C(=O)c2ccc(F)cc2Cl)CC1 [Cpd 009, (2-chloro-4-fluoro-phenyl)-[4-[5-(cyclopropylmethylsulfonyl)-2-methoxy-phenyl]piperazin-1-yl]methanone] | 1 to 10
COc1ccc(S(=O)(=O)C(C)C)cc1N1CCN(C(=O)c2ccc(F)cc2Cl)CC1 [Cpd 008, (2-chloro-4-fluoro-phenyl)-[4-(5-isopropylsulfonyl-2-methoxy-phenyl)piperazin-1-yl]methanone] | 10 to 50
COc1ccc(S(=O)(=O)C2CCN(CCc3ccccc3)CC2)cc1N1[C@@H]2CC[C@H]1CN(C(=O)c1ccc(F)cc1Cl)C2 [Cpd 028, (2-chloro-4-fluoro-phenyl)-[(1S,5R)-8-[2-methoxy-5-[[1-(2-phenylethyl)-4-piperidyl]sulfonyl]phenyl]-3,8-diazabicyclo[3.2.1]octan-3-yl]methanone] | 1 to 10
COc1ccc(S(=O)(=O)C2CCN(c3ccccc3)CC2)cc1N1[C@@H]2CC[C@H]1CN(C(=O)c1ccc(F)cc1Cl)C2 [Cpd 027, (2-chloro-4-fluoro-phenyl)-[(1S,5R)-8-[2-methoxy-5-[(1-phenyl-4-piperidyl)sulfonyl]phenyl]-3,8-diazabicyclo[3.2.1]octan-3-yl]methanone] | < 1
CCC(CC)CS(=O)(=O)c1ccc(OC)c(N2[C@@H]3CC[C@H]2CN(C(=O)c2ccc(F)cc2Cl)C3)c1 [Cpd 021, (2-chloro-4-fluoro-phenyl)-[(1S,5R)-8-[5-(2-ethylbutylsulfonyl)-2-methoxy-phenyl]-3,8-diazabicyclo[3.2.1]octan-3-yl]methanone] | 1 to 10
O=C(c1ccc(F)cc1Cl)N1C[C@H]2CC[C@@H](C1)N2c1cc(S(=O)(=O)C2CCN(c3ccccc3)CC2)ccc1O [Cpd 030, (2-chloro-4-fluoro-phenyl)-[(1S,5R)-8-[2-hydroxy-5-[(1-phenyl-4-piperidyl)sulfonyl]phenyl]-3,8-diazabicyclo[3.2.1]octan-3-yl]methanone] | < 1
Cc1c(Cl)cc(S(=O)(=O)CC(C)(C)C)cc1N1[C@@H]2CC[C@H]1CN(C(=O)c1ccc(F)cc1Cl)C2 [Cpd 036, [(1S,5R)-8-[3-chloro-5-(2,2-dimethylpropylsulfonyl)-2-methyl-phenyl]-3,8-diazabicyclo[3.2.1]octan-3-yl]-(2-chloro-4-fluoro-phenyl)methanone] | < 1
Cc1cc(S(=O)(=O)CC(C)(C)C)cc(N2[C@@H]3CC[C@H]2CN(C(=O)c2ccc(F)cc2Cl)C3)c1O [Cpd 032, (2-chloro-4-fluoro-phenyl)-[(1S,5R)-8-[5-(2,2-dimethylpropylsulfonyl)-2-hydroxy-3-methyl-phenyl]-3,8-diazabicyclo[3.2.1]octan-3-yl]methanone] | 1 to 10
COc1ccc(S(=O)(=O)C(C)CCCc2ccccc2)cc1N1C2CCC1CN(C(=O)c1ccc(F)cc1Cl)C2 (racemic) [Cpd 024, (2-chloro-4-fluoro-phenyl)-[(1S,5R)-8-[2-methoxy-5-[(1SR)-1-methyl-4-phenyl-butyl]sulfonyl-phenyl]-3,8-diazabicyclo[3.2.1]octan-3-yl]methanone] | 1 to 10
